“Also recorded” adds a separate entry of the source. Like-named read-outs stand apart in the source and are kept apart here.
Experiments:
TOR2-mTOR L2185D mutant = test: Yeast spotting assay for drug resistance, TOR2-mTOR L2185D; assay type: cell-based, S. cerevisiae; conditions: 37° C., with amphotericin B
From the text: (§1) FIGS. 4A-C. […] (FIG. 4A) Scheme of a yeast-based screen for drug-resistant mutations in mTOR kinase domain. mTOR kinase domain is amplified by error-prone PCR to generate randomized mutations, which is then recombined in frame into the TOR2-mTOR plasmid by gap-repair in tort-dg cells, and is selected on SC-leucine minus plates. Replica plating is then made onto SC-leucine plates containing DMSO or mTOR kinase inhibitor for selection of drug resistant clones. (FIG. 4B) tor2-dg cells expressing WT or mutant TOR2-mTOR were serially diluted by 10-fold and assayed for sensitivity to different mTOR kinase inhibitors in the presence of amphotericin B. Vector and TOR2 were used as controls. Drug resistant assay was performed at 37° C. in the presence of amphotericin B (except OSI-027). (FIG. 4C) Systematic mutational analysis of L2185 on drug resistance. tort-dg cells expressing WT or mutant TOR2-mTOR carrying all possible mutations at L2185 were serially diluted by 10-fold and tested for sensitivity to different mTOR kinase inhibitors at 37° C.
(§2) To enhance yeast cell permeability, log phase W303 tort-dg cells were spread evenly on SD-Leu agarose plates. After drying, small sterile filter discs were placed on the surface and 5 μl of indicated mTOR inhibitors or DMSO were applied to each disc with or without adding 5 μl of amphotericin B (10 μM), miconazole (50 μM) or caspofungin (50 μM). Plates were incubated at 37° C. for 3 day. Drug resistance profiles of TOR2-mTOR mutant cells were determined by the spotting assay. For this assay, 10-fold serial dilutions of cells were spotted on SD-leu plates in the presence of indicated mTOR inhibitors with or without amphotericin B (200 nM) and incubated at 37° C. for 3 day.

TOR2-mTOR L2185A mutant = test: Yeast spotting assay for drug resistance, TOR2-mTOR L2185A; assay type: cell-based, S. cerevisiae
From the text: as §1, §2

TOR2-mTOR L2185G mutant = test: Yeast spotting assay for drug resistance, TOR2-mTOR L2185G; assay type: cell-based, S. cerevisiae; conditions: 37° C., with amphotericin B
From the text: as §1, §2

TOR2-mTOR L2185C mutant = test: Yeast spotting assay for drug resistance, TOR2-mTOR L2185C; assay type: cell-based, S. cerevisiae
From the text: as §1, §2

[1] = tested on: SW480 colorectal cancer cells carrying L2185A mutant mTOR alleles; test: SRB growth assay of SW480 cells carrying L2185A mutant mTOR; assay type: cell-based, human; conditions: various concentrations, 2 day
Protocol: (§3) (FIG. 5A) SW480 cells carrying homozygous WT mTOR or L2185A mutant alleles were treated with various concentrations of AZD8055, INK-128, OSI-027 and PP242 for 2 day. Growth of SW480 cells was measured by SRB assay. Data represent means±SD in three independent experiments. (FIG. 5B) SW480 cells carrying homozygous WT and L2185A mutant mTOR allele were treated with a single dose of AZD8055 (100 nM), INK-128 (100 nM), OSI-027 (6,000 nM), and PP242 (2,000 nM) for different times. Cell growth was measured by SRB assay. The drug carrier DMSO was used as a control. Data represent means±SD in three independent experiments. (FIG. 5C) SW480 cells carrying homozygous WT and L2185A mutant mTOR were treated with various concentrations of INK-128, OSI-027, AZD8055 and PP242 for 1 hr. The effect on the level of P-S6K, S6K, P-4E-BP1, 4EB-P1, P-AKT and AKT was analyzed by immunoblot. […] The growth of SW480 cells was measured by SRB assay. Data represent means±SD in three independent experiments.
Cancer cell lines were maintained in DMEM or RPMI 1640, supplemented with 10% fetal bovine serum (Invitrogen) and 1% penicillin/streptomycin (Invitrogen). CRISPR/cas9 technology was used to engineer mutant mTOR allele in SW480 colorectal and H460 lung cancer cells. Briefly, The target sequence for mTOR, […] (SEQ ID NO: 3 was designed through the online tool at crispr.mit.edu, and cloned into pSPCas9(BB)-2A-GFP vector (PX458 in Addgene). Genomic mTOR mutation was engineered using a protocol as described (Ran, et al. (2013). Nature protocols 8, 2281-2308) and was confirmed by targeted sequencing.
(§4) Antibodies against tubulin, S6K, phospho-S6K (Thr389), 4E-BP1, phospho-4E-BP1 (Thr37/46), Akt, phospho-Akt (Thr308), and phospho-Akt (Ser473) were purchased from Cell Signaling Technology. […] For drug sensitivity test, cancer cells were seeded in 96-well plates at a density of 2,000 cells per well. 24 hours later, different concentrations of mTOR inhibitors were added in quadruplicate. Cell growth was measured by the sulforhodamine B (SRB) assay as previously described (Vichai, V., and Kirtikara, K. (2006). Nature protocols 1, 1112-1116).

[2] = tested on: mTORC1 and mTORC2 signaling in SW480 mTOR(L2185A) cells; test: mTORC1/mTORC2 signaling immunoblot in SW480 cells carrying L2185A mutant mTOR; assay type: cell-based, human; conditions: various concentrations, 1 hr, immunoblot of P-S6K, P-4E-BP1, P-AKT
Protocol: as §3, §4

TOR2-mTOR L2185N mutant = test: Yeast spotting assay for drug resistance, TOR2-mTOR L2185N; assay type: cell-based, S. cerevisiae; conditions: 37° C., with amphotericin B
From the text: as §1, §2

[3] = target: T1, tor2-dg cells expressing TOR2-mTOR (UniProt P32600+P42345, A1929L/A1944S/A1986S/A2056E/A2073S/C1999R/C2085L/C2133A/D1912T/D1918E/D1933G/D1947H/D2096N/DUP2140-2140/E1921Q/E2000I/E2014H/E2032D/E2033D/E2049A/E2059K/E2080D/G1897S/G1954S/G2046K/G2092K/H1915G/H1958L/H1988Q/H2028Y/H2055Y/H2106N/I1939L/I1957L/I1964L/I1973V/I2021V/K1928N/K1993S/K1996E/K2045E/K2066R/K2087N/K2095S/L1923M/L1952I/L1956S/L1995I/L2037Q/L2103I/M2010E/M2011L/M2026Q/M2058L/M2079N/M2089K/M2132S/N1898S/N1899S/N1920T/N1989K/N1992L/N1997K/N2003P/N2071Q/N2093D/P1951Q/Q1937E/Q1959S/Q2007D/Q2063E/Q2072N/Q2082Y/R1890H/R1896E/R1950N/R1966K/R2042H/R2086M/R2110K/R2134H/S1980I/S2112G/S2120T/T1903A/T1948Q/T1962S/T1977M/T1983E/T1984S/T1985L/T2004V/T2068I/T2098N/T2119Q/V1906L/V1919A/V1924H/V1927F/V2019M/V2044T/V2050A/W1916I/Y1913F/Y1967A/Y2038F/Y2074F/Y2125H); test: Disc halo assay of tor2-dg cells expressing TOR2-mTOR, with or without antifungal permeability enhancers; assay type: cell-based, S. cerevisiae; conditions: filter discs supplemented with amphotericin B (10 μM), miconazole (50 μM) or caspofungin (50 μM); 37° C., 3 day
T1 construct: fused in frame with mTOR kinase domain (2140-2549 aa); yeast TOR2 N-terminus (1-2080 aa); expressed in transfected cells; host or cells: S. cerevisiae W303 tor2-dg, centromeric plasmid derived from pML40-TOR2
T1 sequence (P32600+P42345 fused with the stated changes): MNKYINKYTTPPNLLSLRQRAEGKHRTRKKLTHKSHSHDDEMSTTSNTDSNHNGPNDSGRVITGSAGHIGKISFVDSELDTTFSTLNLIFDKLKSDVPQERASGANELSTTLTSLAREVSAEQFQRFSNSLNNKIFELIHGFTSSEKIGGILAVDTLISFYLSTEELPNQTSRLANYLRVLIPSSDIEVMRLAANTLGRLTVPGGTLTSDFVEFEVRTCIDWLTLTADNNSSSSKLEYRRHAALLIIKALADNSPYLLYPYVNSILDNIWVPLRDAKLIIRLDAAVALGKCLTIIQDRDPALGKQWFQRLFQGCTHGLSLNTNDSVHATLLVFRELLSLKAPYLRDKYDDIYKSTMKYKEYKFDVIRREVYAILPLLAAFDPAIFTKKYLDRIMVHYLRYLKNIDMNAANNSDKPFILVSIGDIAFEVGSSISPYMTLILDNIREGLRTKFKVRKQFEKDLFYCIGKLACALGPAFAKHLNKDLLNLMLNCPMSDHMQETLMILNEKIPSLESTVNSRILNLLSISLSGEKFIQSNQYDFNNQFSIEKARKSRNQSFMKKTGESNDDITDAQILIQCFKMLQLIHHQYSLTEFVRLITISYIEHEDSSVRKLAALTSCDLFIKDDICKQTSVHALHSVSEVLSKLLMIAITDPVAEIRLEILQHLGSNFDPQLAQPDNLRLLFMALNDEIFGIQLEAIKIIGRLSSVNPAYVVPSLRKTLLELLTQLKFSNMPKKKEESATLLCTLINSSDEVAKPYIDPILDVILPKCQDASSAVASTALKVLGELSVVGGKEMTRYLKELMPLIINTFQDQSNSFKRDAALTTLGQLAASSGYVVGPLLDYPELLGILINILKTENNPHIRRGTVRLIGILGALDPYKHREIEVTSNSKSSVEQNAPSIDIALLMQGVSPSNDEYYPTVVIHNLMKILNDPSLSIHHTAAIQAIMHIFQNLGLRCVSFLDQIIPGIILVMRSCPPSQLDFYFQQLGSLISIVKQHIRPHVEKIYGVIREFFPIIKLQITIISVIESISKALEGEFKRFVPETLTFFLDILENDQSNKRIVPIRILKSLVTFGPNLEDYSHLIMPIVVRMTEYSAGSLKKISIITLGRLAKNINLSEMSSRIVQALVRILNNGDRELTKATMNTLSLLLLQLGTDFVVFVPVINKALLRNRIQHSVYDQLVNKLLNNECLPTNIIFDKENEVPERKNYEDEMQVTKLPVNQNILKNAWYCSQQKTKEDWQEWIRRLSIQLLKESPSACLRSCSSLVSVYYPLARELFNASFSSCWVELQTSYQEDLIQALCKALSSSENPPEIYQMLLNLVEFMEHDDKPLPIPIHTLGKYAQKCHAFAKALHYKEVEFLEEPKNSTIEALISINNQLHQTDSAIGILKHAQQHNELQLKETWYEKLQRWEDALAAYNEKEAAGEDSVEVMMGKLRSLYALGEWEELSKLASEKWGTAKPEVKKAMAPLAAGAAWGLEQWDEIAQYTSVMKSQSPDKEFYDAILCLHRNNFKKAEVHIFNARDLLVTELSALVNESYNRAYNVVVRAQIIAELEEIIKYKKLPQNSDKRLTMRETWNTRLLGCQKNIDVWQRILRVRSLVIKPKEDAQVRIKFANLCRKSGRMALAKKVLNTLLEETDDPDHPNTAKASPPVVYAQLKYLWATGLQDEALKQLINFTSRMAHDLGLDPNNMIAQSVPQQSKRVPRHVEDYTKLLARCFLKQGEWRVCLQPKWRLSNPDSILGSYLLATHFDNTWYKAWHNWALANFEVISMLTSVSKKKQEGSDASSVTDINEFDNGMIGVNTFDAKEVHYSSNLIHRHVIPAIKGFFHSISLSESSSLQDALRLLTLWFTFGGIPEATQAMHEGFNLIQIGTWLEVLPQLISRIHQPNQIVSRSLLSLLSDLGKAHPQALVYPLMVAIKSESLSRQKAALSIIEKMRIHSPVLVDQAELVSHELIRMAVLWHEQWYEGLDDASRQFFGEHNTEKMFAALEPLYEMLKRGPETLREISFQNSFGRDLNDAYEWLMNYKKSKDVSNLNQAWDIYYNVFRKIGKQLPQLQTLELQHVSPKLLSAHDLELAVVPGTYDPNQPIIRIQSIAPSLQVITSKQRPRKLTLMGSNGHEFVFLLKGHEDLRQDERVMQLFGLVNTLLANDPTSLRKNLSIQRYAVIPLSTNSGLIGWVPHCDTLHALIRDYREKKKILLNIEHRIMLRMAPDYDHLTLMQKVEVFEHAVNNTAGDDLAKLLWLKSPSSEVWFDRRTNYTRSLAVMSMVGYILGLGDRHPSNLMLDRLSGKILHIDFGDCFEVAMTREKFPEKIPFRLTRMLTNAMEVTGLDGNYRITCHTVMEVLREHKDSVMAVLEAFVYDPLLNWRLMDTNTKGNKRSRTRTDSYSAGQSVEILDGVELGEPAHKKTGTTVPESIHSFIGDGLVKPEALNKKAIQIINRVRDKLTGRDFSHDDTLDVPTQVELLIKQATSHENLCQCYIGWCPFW
T1 sequence (P41318 whole entry partner): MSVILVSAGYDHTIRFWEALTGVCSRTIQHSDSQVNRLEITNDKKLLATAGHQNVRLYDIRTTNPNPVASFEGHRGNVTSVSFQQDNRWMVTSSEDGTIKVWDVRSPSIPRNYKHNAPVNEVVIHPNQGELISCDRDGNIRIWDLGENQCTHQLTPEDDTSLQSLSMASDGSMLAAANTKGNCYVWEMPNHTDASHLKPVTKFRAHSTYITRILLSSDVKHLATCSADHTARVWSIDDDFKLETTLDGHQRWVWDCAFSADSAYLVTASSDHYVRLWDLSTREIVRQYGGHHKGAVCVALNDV
Protocol: FIGS. 2A-C. Enhancement of yeast cell permeability to structurally diverse mTOR kinase inhibitors by amphotericin B. (FIG. 2A) tor2-dg cells expressing TOR2-mTOR were spread on synthetic complete (SC)-leucine plate and tested for drug sensitivity by disc halo assay using filter discs containing different mTOR kinase inhibitors supplemented with the drug carrier DMSO or amphotericin B (10 μM). (FIG. 2B) Similar to FIG. 2A except the filter discs were supplemented with miconazole (50 μM). (FIG. 2C) Similar to FIG. 2A except the filter discs were supplemented with caspofungin (50 μM).
as §2

[4] = 37° C., amphotericin B present (except OSI-027)

**Q.** COc1ccc(-c2ccc3c(N4CCOC[C@@H]4C)nc(N4CCOC[C@@H]4C)nc3n2)cc1CO [AZD8055] was tested. Which “drug resistance of TOR2-mTOR L2185D mutant yeast” value (TOR2-mTOR L2185D mutant) did it give?
**A.** moderately resistant

**Q.** And the “drug resistance/sensitivity of TOR2-mTOR L2185A mutant yeast” value (TOR2-mTOR L2185A mutant; [4])?
**A.** confer resistance; also recorded: conferring resistance

**Q.** What about the “drug resistance of TOR2-mTOR L2185G mutant yeast” value (TOR2-mTOR L2185G mutant) of the same molecule?
**A.** moderately resistant

**Q.** And the “drug resistance/sensitivity of TOR2-mTOR L2185C mutant yeast” value (TOR2-mTOR L2185C mutant; [4])?
**A.** confer resistance; also recorded: conferring resistance

**Q.** What about the “drug resistance/sensitivity of cell growth, SW480 L2185A vs WT” value (from here on “drug resistance/sensitivity … vs WT”) [1] of the same molecule?
**A.** confers resistance

**Q.** What about the “drug resistance of mTORC1 and mTORC2 signaling, SW480 L2185A vs WT” value [2] of the same molecule?
**A.** drug-resistant signaling by both mTORC1 and mTORC2

**Q.** And the “drug resistance of TOR2-mTOR L2185N mutant yeast” value (TOR2-mTOR L2185N mutant)?
**A.** moderately resistant

**Q.** Which “effect of antifungal drug on yeast sensitivity to mTOR kinase inhibitors” value (from here on “effect … to mTOR kinase inhibitors”) [3] does the source give for C[C@@H]1[C@H](O)[C@@H](C)/C=C/C=C/C=C/C=C/C=C/C=C/C=C/[C@H](O[C@@H]2O[C@H](C)[C@@H](O)[C@H](N)[C@@H]2O)C[C@@H]2O[C@](O)(C[C@@H](O)C[C@@H](O)[C@H](O)CC[C@@H](O)C[C@@H](O)CC(=O)O[C@H]1C)C[C@H](O)[C@H]2C(=O)O [Amphotericin B] here?
**A.** increases yeast sensitivity to most of mTOR kinase inhibitors

**Q.** COc1ccc(-c2cc3c(C)nc(N)nc3n([C@H]3CC[C@H](OCCO)CC3)c2=O)cn1 [PF-04691502] was tested. Which “drug resistance of TOR2-mTOR L2185D mutant yeast” value (TOR2-mTOR L2185D mutant) did it give?
**A.** moderately resistant

**Q.** What about the “drug resistance/sensitivity of TOR2-mTOR L2185A mutant yeast” value (TOR2-mTOR L2185A mutant; [4]) of the same molecule?
**A.** confers resistance; also recorded: conferring resistance

**Q.** What about the “drug resistance of TOR2-mTOR L2185G mutant yeast” value (TOR2-mTOR L2185G mutant) of the same molecule?
**A.** moderately resistant

**Q.** What about the “drug resistance/sensitivity of TOR2-mTOR L2185C mutant yeast” value (TOR2-mTOR L2185C mutant; [4]) of the same molecule?
**A.** confer resistance; also recorded: conferring resistance

**Q.** What about the “drug resistance/sensitivity … vs WT” value [1] of the same molecule?
**A.** still sensitive

**Q.** What about the “drug resistance of TOR2-mTOR L2185N mutant yeast” value (TOR2-mTOR L2185N mutant) of the same molecule?
**A.** moderately resistant

**Q.** CN(C)C1CCN(C(=O)c2ccc(NC(=O)Nc3ccc(-c4nc(N5CCOCC5)nc(N5CCOCC5)n4)cc3)cc2)CC1 [PKI-587] was tested. Which “drug resistance of TOR2-mTOR L2185D mutant yeast” value (TOR2-mTOR L2185D mutant) did it give?
**A.** moderately resistant

**Q.** What about the “drug resistance/sensitivity of TOR2-mTOR L2185A mutant yeast” value (TOR2-mTOR L2185A mutant) of the same molecule?
**A.** conferring resistance

**Q.** And the “drug resistance of TOR2-mTOR L2185G mutant yeast” value (TOR2-mTOR L2185G mutant)?
**A.** moderately resistant

**Q.** What about the “drug resistance/sensitivity of TOR2-mTOR L2185C mutant yeast” value (TOR2-mTOR L2185C mutant) of the same molecule?
**A.** conferring resistance

**Q.** What about the “drug resistance of TOR2-mTOR L2185N mutant yeast” value (TOR2-mTOR L2185N mutant) of the same molecule?
**A.** moderately resistant

**Q.** For CC(C)n1nc(-c2cc3cc(O)ccc3[nH]2)c2c(N)ncnc21 [PP242], which “drug resistance/sensitivity … vs WT” value [1] is on record?
**A.** confers resistance

**Q.** What about the “drug resistance of mTORC1 and mTORC2 signaling, SW480 L2185A vs WT” value [2] of the same molecule?
**A.** drug-resistant signaling by both mTORC1 and mTORC2

**Q.** For CC[C@H](C)C[C@H](C)CCCCCCCCC(=O)N[C@H]1C[C@@H](O)[C@@H](NCCN)NC(=O)[C@@H]2[C@@H](O)CCN2C(=O)[C@H]([C@H](O)CCN)NC(=O)[C@H]([C@H](O)[C@@H](O)c2ccc(O)cc2)NC(=O)[C@@H]2C[C@@H](O)CN2C(=O)[C@H]([C@@H](C)O)NC1=O [caspofungin], which “effect … to mTOR kinase inhibitors” value [3] is on record?
**A.** fail to do so

**Q.** With Clc1ccc(COC(Cn2ccnc2)c2ccc(Cl)cc2Cl)c(Cl)c1 (centres unmarked) [miconazole] as the molecule, how does the “effect … to mTOR kinase inhibitors” value [3] read?
**A.** fail to do so

Source: patent US10551384B2, “MTOR kinase mutations and methods of use thereof” (RUTGERS, THE STATE UNIVERSITY OF NEW JERSEY, priority 2016, dated 2020)
